Assay: Solubility in solvents (qualitative)
Assay type: physicochemical

- solubility (in acetone): can easily be dissolved
- solubility (in acetonitrile): can be well dissolved
- solubility (in dichloroethane): can easily be dissolved
- solubility (in ethanol): cannot be dissolved well
- solubility (in water): can hardly be dissolved
Compound: CCOC(=O)Oc1ccc(/C=C/C=C/C(=O)NCCN2CCC(OC(c3ccccc3)c3ccccc3)CC2)cc1OC [TMK 688]

— EP0537070A1, “Compositions containing compound TMK688 and its analogs” (TERUMO KABUSHIKI KAISHA, priority 1991, dated 1993)
